In test [1] the target is LCK protein (Homo sapiens (Human), UniProt P06239). Briefly: LCK Inhibition Assay. The format is biochemical. In a few lines: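 Recombinant LCK (0.50 nM) preincubated 30 min at RT with compound and FLPeptide4 (2 μM) in 50 mM HEPES pH 7.5, 10 mM MgCl2, Brij-35, DTT, BSA; reaction started with ATP (400 μM solution added), run 90 min at 25 °C, EDTA-stopped. Phospho/non-phospho peptide separated by mobility shift; IC50 from % inhibition of conversion, 11-point 1:3 series.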

In test [2] the target is CSK protein (Homo sapiens (Human), UniProt P41240). Briefly: CSK Inhibition Assay. It is filed as biochemical. The essentials: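 Compounds, 11-point 1:3 dilutions in DMSO, were preincubated 30 min at RT with CSK and fluorescent peptide substrate, then the reaction was started with ATP (4 μM solution) and run 90 min at 25 °C before EDTA stop. Phospho-peptide conversion was read by mobility-shift separation (Caliper EZ Reader II) and converted to % inhibition for IC50.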
Sequence of CSK protein (P41240 whole entry): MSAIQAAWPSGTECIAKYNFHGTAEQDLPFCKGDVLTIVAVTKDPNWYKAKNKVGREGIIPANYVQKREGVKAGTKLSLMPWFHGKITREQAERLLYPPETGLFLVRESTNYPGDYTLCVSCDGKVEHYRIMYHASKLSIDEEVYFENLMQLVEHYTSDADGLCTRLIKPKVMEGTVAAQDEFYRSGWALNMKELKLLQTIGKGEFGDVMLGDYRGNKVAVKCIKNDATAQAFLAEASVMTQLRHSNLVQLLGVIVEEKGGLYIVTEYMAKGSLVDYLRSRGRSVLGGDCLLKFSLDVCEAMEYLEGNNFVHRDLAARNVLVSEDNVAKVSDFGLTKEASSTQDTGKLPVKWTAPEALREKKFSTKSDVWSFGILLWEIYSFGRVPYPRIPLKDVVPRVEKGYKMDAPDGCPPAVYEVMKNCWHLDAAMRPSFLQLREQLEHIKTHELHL

The structures appear in SMILES notation. Where only a bound is given, the exact number is not on record here.

This is an account of results in patent US12427146B2, “C-terminal SRC kinase inhibitors” (INVENTISBIO CO., LTD., priority 2018, dated 2025).

Sequence of LCK protein (P06239 whole entry): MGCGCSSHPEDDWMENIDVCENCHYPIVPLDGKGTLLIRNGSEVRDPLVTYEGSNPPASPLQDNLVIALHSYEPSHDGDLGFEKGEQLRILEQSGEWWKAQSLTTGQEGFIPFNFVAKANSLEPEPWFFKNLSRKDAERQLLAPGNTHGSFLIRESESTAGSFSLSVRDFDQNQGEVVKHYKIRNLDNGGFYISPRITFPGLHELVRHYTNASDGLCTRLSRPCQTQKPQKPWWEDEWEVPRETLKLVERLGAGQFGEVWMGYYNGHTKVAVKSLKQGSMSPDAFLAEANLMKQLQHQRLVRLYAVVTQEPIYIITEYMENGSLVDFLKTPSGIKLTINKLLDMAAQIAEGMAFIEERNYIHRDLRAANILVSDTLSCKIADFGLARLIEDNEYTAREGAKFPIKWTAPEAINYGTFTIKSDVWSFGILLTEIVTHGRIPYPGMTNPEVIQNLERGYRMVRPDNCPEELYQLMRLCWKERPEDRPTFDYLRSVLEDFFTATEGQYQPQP

For the compound `COc1ccc(F)c(S(=O)(=O)Nc2cccc(-c3nc(-c4cncc(F)c4)sc3-c3ccnc(N)n3)c2F)c1F` [compound 50], the IC50 in test [1] is above 1000 nM; in test [2], 76.3 nM.

Regarding `Nc1nccc(-c2c(-c3cccc(NS(=O)(=O)c4c(F)cccc4F)c3F)nc3ccccn23)n1` [compound 90], the IC50 is above 1000 nM in test [1] and 77 nM in test [2].

With `COc1ccn2c(-c3ccnc(N)n3)c(-c3cccc(NS(=O)(=O)c4c(F)cccc4F)c3F)nc2c1` [compound 91], the values for the IC50 in test [1] and in test [2] were above 1000 nM and 52.7 nM, respectively.

On to `CN1CCN(c2ccc(Nc3nccc(-c4cn(C5CCCCC5)nc4-c4cccc(NS(=O)(=O)c5c(F)cccc5F)c4F)n3)cn2)CC1` [compound 108], for which the IC50 was below 100 nM in test [1] and 2.5 nM in test [2].

On to `Nc1nccc(-c2sc(N3CCCC3=O)nc2-c2cccc(NS(=O)(=O)c3c(F)cccc3F)c2F)n1` [compound 112], for which the IC50 was above 1000 nM in test [1] and 30.3 nM in test [2].

For the compound `CC(C)(C)c1nc(-c2cccc(NS(=O)(=O)c3c(F)cccc3F)c2F)c(-c2ccnc(Nc3ccc(N4CCOCC4)nc3)n2)s1` [compound 118], the IC50 is below 100 nM in test [1] and 2.8 nM in test [2].

Regarding `CCN(CC)c1nc(-c2cccc(NS(=O)(=O)c3c(F)cccc3F)c2F)c(-c2ccnc(NC)n2)s1` [compound 153], the IC50 in test [1] is 100 to 1000 nM; in test [2], 7.4 nM.

As to `CNc1nccc(-c2sc(-c3cncc(F)c3)nc2-c2cc(C)cc(NS(=O)(=O)c3c(F)cccc3F)c2F)n1` [compound 154], the IC50 in test [1] is 100 to 1000 nM; in test [2], 12.5 nM.
